Measurements: patent US12625141B2, “Fluorescent dye, preparation method and uses thereof” (FLUORESCENCE DIAGNOSIS (SHANGHAI) BIOTECH COMPANY LTD., priority 2019, dated 2026)

Columns and labels:
[1] = Fluorescence emission in glycerol versus methanol (viscosity response); format: physicochemical; settings: for Glycerol/methanol fluorescence intensity ratio: 1×10^-5 M in glycerol and methanol, maximum excitation wavelength of each dye; for Emission (nm): 1×10^-5 M, maximum excitation wavelength of each fluorescent dye
[2] = Fluorescence emission at different viscosity conditions in diethanol-glycerol mixed solution; format: physicochemical; settings: 1×10^−5 M, excitation at 480 nm
[3] = tested on: F30-8Pepper-5 RNA aptamer; assay: Binding to RNA aptamer, optical properties after binding; settings: for Em/nm / Ex/nm / ε / QY (−): after binding to RNA aptamer; for QY (−): relative method with Rhodamine 6G as the standard; for Kd: binding to RNA aptamer; for Activation Multiple: fluorescence activation after binding to RNA aptamer
RNA aptamer in cells = assay: Labeling intracellular RNA aptamers in cells; format: cell-based; settings: for Fluorescence of cells not expressing the RNA aptamer: cells not expressing the RNA aptamer (FIG. 17B); for Fluorescence of cells transcribing the RNA aptamer: cells transcribing the RNA aptamer (FIG. 17A)
[4] = tested on: ACTB-4Pepper RNA aptamer (skeleton protein mRNA) in 293T/17 cell line; assay: Labeling intracellular mRNA, flow detection; format: cell-based; settings: 0.2 μM in PBS, incubated for 5 minutes
From the text: FIGS. 18A and 18B are the application of molecular rotors III-3, III-43 in labeling intracellular mRNA.

Row | SMILES | Glycerol/methanol fluorescence intensity ratio [1] | Emission (nm) [1] | further results
1 | CN(C)c1ccc(/C=C(\C#N)c2ccc(C#N)cc2)cc1 [III-1] | 990 | 530 nm | –
2 | CCN(CC)c1ccc(/C=C(\C#N)c2ccc(C#N)cc2)cc1 [III-2] | 870 | 530 nm | –
3 | CN(CCO)c1ccc(/C=C(\C#N)c2ccc(C#N)cc2)cc1 [III-3] | 1025 | 530 nm | Sensitivity of fluorescence intensity to viscosity [2]: sensitive to viscosity; Em/nm [3]: 530 nm; Ex/nm [3]: 485 nm; ε [3]: 65300 M⁻¹ cm⁻¹; QY (−) [3]: 0.66; Kd [3]: 3.5 nM; Activation Multiple [3]: 3595; Fluorescence of cells not expressing the RNA aptamer (RNA aptamer in cells): no fluorescence; Fluorescence of cells transcribing the RNA aptamer (RNA aptamer in cells): bright fluorescence; Background fluorescence in cells [4]: no obvious background fluorescence; Labeling of skeleton protein mRNA in cell lines expressing target RNA [4]: could specifically mark the mRNA of skeleton protein
4 | CN(C)CCN(C)c1ccc(/C=C(\C#N)c2ccc(C#N)cc2)cc1 [III-4] | 892 | 521 nm | Sensitivity of fluorescence intensity to viscosity [2]: sensitive to viscosity; Em/nm [3]: 514 nm; Ex/nm [3]: 458 nm; ε [3]: 44100 M⁻¹ cm⁻¹; QY (−) [3]: 0.45; Activation Multiple [3]: 4748; Fluorescence of cells not expressing the RNA aptamer (RNA aptamer in cells): no fluorescence; Fluorescence of cells transcribing the RNA aptamer (RNA aptamer in cells): bright fluorescence
5 | CN(CCO)c1cnc(/C=C(\C#N)c2ccc(C#N)cc2)cn1 [III-6] | 1148 | 490 nm | Em/nm [3]: 497 nm; Ex/nm [3]: 435 nm; ε [3]: 54700 M⁻¹ cm⁻¹; QY (−) [3]: 0.57; Kd [3]: 6.7 nM; Activation Multiple [3]: 16601; Fluorescence of cells not expressing the RNA aptamer (RNA aptamer in cells): no fluorescence; Fluorescence of cells transcribing the RNA aptamer (RNA aptamer in cells): bright fluorescence
6 | CN(C)CCN(C)c1cnc(/C=C(\C#N)c2ccc(C#N)cc2)cn1 [III-7] | 977 | 485 nm | Em/nm [3]: 485 nm; Ex/nm [3]: 443 nm; ε [3]: 49100 M⁻¹ cm⁻¹; QY (−) [3]: 0.42; Kd [3]: 8 nM; Activation Multiple [3]: 691; Fluorescence of cells not expressing the RNA aptamer (RNA aptamer in cells): no fluorescence; Fluorescence of cells transcribing the RNA aptamer (RNA aptamer in cells): bright fluorescence
7 | CN(CCO)c1ccc(/C=C(\C#N)c2ccc(C#N)cc2)cn1 [III-8] | 1168 | 495 nm | –
8 | CCN(CC)CCN(C)c1ccc(/C=C(\C#N)c2ccc(C#N)cc2)cn1 [III-9] | 920 | 490 nm | –
9 | CN(C)c1ccc(/C=C(\C#N)c2ccc(C#N)cc2)nc1 [III-10] | 1620 | 520 nm | –
10 | CN(CCO)c1ncc(/C=C(\C#N)c2ccc(C#N)cc2)cn1 [III-11] | 869 | 470 nm | –
11 | CN(C)CCN(C)c1cnc(/C=C(\C#N)c2ccc(C#N)cc2)nc1 [III-12] | 855 | 542 nm | –
12 | CN(CCO)c1ccc(/C=C(\C#N)c2ccc(C#N)cn2)cc1 [III-13] | 752 | 545 nm | –
13 | CN(CCO)c1ccc(/C=C(\C#N)c2cnc(C#N)cn2)cc1 [III-14] | 785 | 550 nm | –
14 | N#C/C(=C\c1cc2c3c(c1)CCCN3CCC2)c1ccc(C#N)cc1 [III-15] | 1011 | 561 nm | –
15 | CN1CCc2cc(/C=C(\C#N)c3ccc(C#N)cc3)ccc21 [III-16] | 491 | 555 nm | –
16 | CNc1ccc2cc(/C=C(\C#N)c3ccc(C#N)cc3)sc2c1 [III-17] | 828 | 587 nm | –
17 | CN(CCO)c1ccc2cc(/C=C(\C#N)c3ccc(C#N)cc3)sc2c1 [III-18] | 978 | 595 nm | Em/nm [3]: 599 nm; Ex/nm [3]: 515 nm; ε [3]: 54400 M⁻¹ cm⁻¹; QY (−) [3]: 0.43; Kd [3]: 18 nM; Activation Multiple [3]: 708; Fluorescence of cells not expressing the RNA aptamer (RNA aptamer in cells): no fluorescence; Fluorescence of cells transcribing the RNA aptamer (RNA aptamer in cells): bright fluorescence

Row | SMILES | Glycerol/methanol fluorescence intensity ratio [1] | Emission (nm) [1] | further results
18 | CN(C)c1cc2sc(/C=C(\C#N)c3ccc(C#N)cc3)cc2s1 [III-19] | 991 | 620 nm | –
19 | CCN(CC)c1cc2sc(/C=C(\C#N)c3ccc(C#N)cc3)cc2s1 [III-20] | 836 | 620 nm | –
20 | CN(CCO)c1cc2sc(/C=C(\C#N)c3ccc(C#N)cc3)cc2s1 [III-21] | 544 | 620 nm | Em/nm [3]: 620 nm; Ex/nm [3]: 577 nm; ε [3]: 10000 M⁻¹ cm⁻¹; QY (−) [3]: 0.58; Kd [3]: 6.1 nM; Activation Multiple [3]: 12600; Fluorescence of cells not expressing the RNA aptamer (RNA aptamer in cells): no fluorescence; Fluorescence of cells transcribing the RNA aptamer (RNA aptamer in cells): bright fluorescence
21 | CN(C)c1ccc(-c2ccc(/C=C(\C#N)c3ccc(C#N)cc3)cc2)cc1 [III-22] | 989 | 650 nm | –
22 | CN(C)c1ccc(-c2ccc(/C=C(\C#N)c3ccc(C#N)cc3)s2)cc1 [III-23] | 687 | 661 nm | –
23 | N#C/C(=C\c1ccc(-c2ccc(N3CCOCCOCCOCCOCC3)cc2)s1)c1ccc(C#N)cc1 [III-24] | 596 | 662 nm | –
24 | CCN(CC)c1ccc(-c2ccc(/C=C(\C#N)c3ccc(C#N)cc3)s2)s1 [III-25] | 783 | 678 nm | –
25 | CN(C)c1ccc(-c2ccc(/C=C(\C#N)c3ccc(C(=O)O)cc3)s2)s1 [III-26] | 368 | 676 nm | –
26 | CN(CCO)c1cc2sc3cc(/C=C(\C#N)c4ccc(C#N)cc4)sc3c2s1 [III-28] | 559 | 662 nm | Sensitivity of fluorescence intensity to viscosity [2]: sensitive to viscosity
27 | CCOC(=O)c1ccc(/C(C#N)=C/c2cc3sc4cc(N(C)C)sc4c3s2)cc1 [III-29] | 684 | 665 nm | –
28 | CN(C)c1cc2sc3cc(/C=C(\C#N)c4ccc([S+](C)[O-])cc4)sc3c2s1 (centres unmarked) [III-30] | 756 | 660 nm | –
29 | CN(CCO)c1cc2c(s1)-c1sc(/C=C(\C#N)c3ccc(S(N)(=O)=O)cc3)cc1[Si]2(C)C [III-32] | 817 | 690 nm | –
30 | CN(CCO)c1cc2c(s1)-c1sc(/C=C(\C#N)c3ccc(C#N)cc3)cc1[Si]2(C)C [III-33] | 691 | 705 nm | –
31 | CN(CCO)c1cc2c(s1)-c1sc(/C=C(\C#N)c3ccc(C(N)=O)cc3)cc1C2(C)C [III-34] | 489 | 689 nm | Sensitivity of fluorescence intensity to viscosity [2]: sensitive to viscosity
32 | COCCOCCOCCOCCOCCN(C)c1cc2c(s1)-c1sc(/C=C(\C#N)c3ccc(C#N)cc3)cc1C2(C)C [III-35] | 710 | 690 nm | –
33 | CN(CCO)c1ccc(/C=C(\C#N)c2nc3ccccc3s2)cc1 [III-43, reference compound] | – | – | Background fluorescence in cells [4]: higher than III-3; Labeling of skeleton protein mRNA in cell lines expressing target RNA [4]: unclear whether ACTB was expressed
